Measurements from US11008337B2, “Chiral diaryl macrocycles as modulators of protein kinases” (Turning Point Therapeutics, Inc., priority 2015, dated 2021).

Key:
Format in all cases: cell-based
[1] = tested on: essential thrombocythemia cell line SET-2 cells (harboring endogenous JAK2 point mutation); assay: Cell proliferation assay, SET-2 cells (CellTiter-Glo); details: Homo sapiens, 72 hours incubation, read-out: Cell Proliferation IC50 SET2
Experimental: (§1) Cell Proliferation Assays.
(§2) Colorectal cell lines KM 12 (harboring endogenous TPM3-TRKA fusion gene) cells were cultured in DMEM medium, supplemented with 10% fetal bovine serum and 100 U/mL of penicillin/streptomycin. 5000 cells were seeded in 384 well white plate for 24 hours before compounds treatment. Cell proliferation was measured using CellTiter-Glo luciferase-based ATP detection assay (Promega) following the manufactures's protocol after 72 hours incubation. IC50 determinations were performed using GraphPad Prism software (GraphPad, Inc., San Diego, Calif.). Alternatively, essential thrombocythemia cell line SET-2 cells (harboring endogenous JAK2 V618F point mutation) or T cell lymphoma Karpas-299 cell line (harboring endogenous NPM-ALK fusion gene) were cultured in RPMI medium, supplemented with 10% fetal bovine serum and 100 U/mL of penicillin/streptomycin. 5000 cells were seeded in 384 well white plate for 24 hours before compounds treatment. Cell proliferation was measured using CellTiter-Glo luciferase-based ATP detection assay (Promega) following the manufactures's protocol after 72 hours incubation. IC50 determinations were performed using GraphPad Prism software (GraphPad, Inc., San Diego, Calif.).

[2] = tested on: Colorectal cell lines KM 12 (harboring endogenous TPM3-TRKA fusion gene); assay: Cell proliferation assay, KM12 cells (CellTiter-Glo); details: Homo sapiens, 72 hours incubation
Experimental: as §1
as §2, with “Alternatively, essential thrombocythemia cell line SET-2 cells (harboring endogenous JAK2 V618F point mutation) or T cell lymphoma Karpas-299 cell line (harboring endogenous NPM-ALK fusion gene) were cultured in RPMI medium, supplemented with 10% fetal bovine serum and 100 U/mL of penicillin/streptomycin.” left out

CD74-ROS1 Ba/F3 = target: T1, CD74-ROS1 Ba/F3 (Homo sapiens, UniProt P08922); assay: Cell proliferation assay, CD74-ROS1 Ba/F3 stable cell line (CellTiter-Glo); details: Ba/F3-CD74-ROS1 wild type cells, 72 hours compound incubation; read-out: Cell Proliferation IC50 CD74-ROS1 Ba/F3
T1 construct: fused on or other part: P04233 (HLA class II histocompatibility antigen gamma chain)
T1 sequence (P08922 whole entry, change not shown, the tested form may be a part): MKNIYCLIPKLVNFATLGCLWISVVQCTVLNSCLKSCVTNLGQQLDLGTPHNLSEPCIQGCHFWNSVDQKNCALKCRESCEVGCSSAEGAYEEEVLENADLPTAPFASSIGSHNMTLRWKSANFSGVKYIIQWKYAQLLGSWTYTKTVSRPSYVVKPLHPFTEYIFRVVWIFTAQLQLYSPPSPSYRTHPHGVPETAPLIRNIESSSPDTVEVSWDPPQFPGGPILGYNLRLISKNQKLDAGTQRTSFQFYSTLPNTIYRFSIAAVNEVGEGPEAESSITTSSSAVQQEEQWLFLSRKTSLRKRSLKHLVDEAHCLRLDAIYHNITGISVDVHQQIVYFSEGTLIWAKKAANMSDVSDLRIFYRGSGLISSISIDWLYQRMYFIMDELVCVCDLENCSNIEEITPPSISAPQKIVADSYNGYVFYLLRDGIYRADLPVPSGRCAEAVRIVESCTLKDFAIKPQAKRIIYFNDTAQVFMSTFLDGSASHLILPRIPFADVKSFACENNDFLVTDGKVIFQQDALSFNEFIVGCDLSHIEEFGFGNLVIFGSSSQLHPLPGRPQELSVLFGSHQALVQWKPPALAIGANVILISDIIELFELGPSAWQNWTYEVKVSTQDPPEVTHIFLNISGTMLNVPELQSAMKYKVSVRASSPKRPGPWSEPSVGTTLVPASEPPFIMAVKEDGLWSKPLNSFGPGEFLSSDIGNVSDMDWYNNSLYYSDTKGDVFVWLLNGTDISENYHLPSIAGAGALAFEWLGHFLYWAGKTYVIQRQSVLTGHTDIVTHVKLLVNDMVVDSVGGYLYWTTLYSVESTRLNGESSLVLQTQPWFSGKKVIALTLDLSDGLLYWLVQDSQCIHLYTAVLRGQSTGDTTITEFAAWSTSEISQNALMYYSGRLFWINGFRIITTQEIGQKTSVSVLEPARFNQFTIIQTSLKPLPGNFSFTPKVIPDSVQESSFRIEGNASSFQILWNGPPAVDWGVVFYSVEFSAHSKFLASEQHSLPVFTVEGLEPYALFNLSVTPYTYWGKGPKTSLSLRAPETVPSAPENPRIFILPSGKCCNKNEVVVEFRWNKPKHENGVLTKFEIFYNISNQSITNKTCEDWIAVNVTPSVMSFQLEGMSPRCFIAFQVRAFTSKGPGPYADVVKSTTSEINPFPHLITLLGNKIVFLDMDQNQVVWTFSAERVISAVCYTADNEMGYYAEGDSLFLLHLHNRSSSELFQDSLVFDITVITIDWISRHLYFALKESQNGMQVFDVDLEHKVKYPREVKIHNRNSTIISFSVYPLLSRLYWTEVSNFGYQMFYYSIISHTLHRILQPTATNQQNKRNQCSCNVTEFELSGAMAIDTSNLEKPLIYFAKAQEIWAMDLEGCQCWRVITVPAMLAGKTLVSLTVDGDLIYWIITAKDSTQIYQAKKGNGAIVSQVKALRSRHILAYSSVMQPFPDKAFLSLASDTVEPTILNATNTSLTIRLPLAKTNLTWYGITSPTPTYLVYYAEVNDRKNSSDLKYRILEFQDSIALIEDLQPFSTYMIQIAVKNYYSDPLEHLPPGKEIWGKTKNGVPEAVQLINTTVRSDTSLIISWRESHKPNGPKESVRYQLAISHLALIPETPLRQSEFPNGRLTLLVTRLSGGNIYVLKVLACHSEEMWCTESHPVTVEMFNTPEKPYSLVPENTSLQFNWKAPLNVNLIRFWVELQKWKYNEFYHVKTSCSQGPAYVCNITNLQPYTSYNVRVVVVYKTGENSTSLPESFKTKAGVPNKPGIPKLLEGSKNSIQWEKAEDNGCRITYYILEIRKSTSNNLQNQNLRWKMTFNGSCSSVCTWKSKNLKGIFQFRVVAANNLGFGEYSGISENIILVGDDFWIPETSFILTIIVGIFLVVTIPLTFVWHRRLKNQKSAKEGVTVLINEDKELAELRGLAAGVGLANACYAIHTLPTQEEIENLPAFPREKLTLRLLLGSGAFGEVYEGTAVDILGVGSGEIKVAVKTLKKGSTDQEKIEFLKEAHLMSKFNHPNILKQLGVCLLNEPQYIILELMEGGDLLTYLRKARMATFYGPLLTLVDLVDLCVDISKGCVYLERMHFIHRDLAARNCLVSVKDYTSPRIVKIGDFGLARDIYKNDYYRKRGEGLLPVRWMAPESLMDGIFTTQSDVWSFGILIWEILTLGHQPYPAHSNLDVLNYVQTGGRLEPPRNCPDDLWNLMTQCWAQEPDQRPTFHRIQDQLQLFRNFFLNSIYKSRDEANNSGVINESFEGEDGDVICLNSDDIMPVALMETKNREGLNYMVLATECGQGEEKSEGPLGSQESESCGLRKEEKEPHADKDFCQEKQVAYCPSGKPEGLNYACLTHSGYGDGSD
Excerpt: (§3) Creation of CD74-ROS1 and EML4-ALK Ba/F3 Stable Cell Lines and Cell Proliferation Assays.
(§4) The CD74-ROS1 wild-type gene and EML4-ALK wild-type gene (variant 1) were synthesized at GenScript and cloned into pCDH-CMV-MCS-EF1-Puro plasmid (System Biosciences, Inc). Ba/F3-CD74-ROS1 and Ba/F3-EML4-ALK wild type cell lines were generated by infecting Ba/F3 cells with lentivirus containing CD74-ROS1 wide-type and EML4-ALK wild type. Stable cell lines were selected by puromycin treatment, followed by IL-3 withdrawal. 3000 cells were seeded in 384 well white plate overnight before compound treatment. Cell proliferation was measured using CellTiter-Glo luciferase-based ATP detection assay (Promega) following the manufactures's protocol after 72 hours of various concentration of compound incubation. IC50 determinations were performed using GraphPad Prism software (GraphPad, Inc., San Diego, Calif.).

EML4-ALK Ba/F3 = target: T2, EML4-ALK Ba/F3 (Homo sapiens, UniProt Q9UM73); assay: Cell proliferation assay, EML4-ALK Ba/F3 stable cell line (CellTiter-Glo); details: Ba/F3-EML4-ALK wild type (variant 1) cells, 72 hours compound incubation; read-out: Cell Proliferation IC50 EML4-ALK Ba/F3
T2 construct: fused on or other part: Q9HC35 (Echinoderm microtubule-associated protein-like 4)
T2 sequence (Q9UM73 whole entry, change not shown, the tested form may be a part): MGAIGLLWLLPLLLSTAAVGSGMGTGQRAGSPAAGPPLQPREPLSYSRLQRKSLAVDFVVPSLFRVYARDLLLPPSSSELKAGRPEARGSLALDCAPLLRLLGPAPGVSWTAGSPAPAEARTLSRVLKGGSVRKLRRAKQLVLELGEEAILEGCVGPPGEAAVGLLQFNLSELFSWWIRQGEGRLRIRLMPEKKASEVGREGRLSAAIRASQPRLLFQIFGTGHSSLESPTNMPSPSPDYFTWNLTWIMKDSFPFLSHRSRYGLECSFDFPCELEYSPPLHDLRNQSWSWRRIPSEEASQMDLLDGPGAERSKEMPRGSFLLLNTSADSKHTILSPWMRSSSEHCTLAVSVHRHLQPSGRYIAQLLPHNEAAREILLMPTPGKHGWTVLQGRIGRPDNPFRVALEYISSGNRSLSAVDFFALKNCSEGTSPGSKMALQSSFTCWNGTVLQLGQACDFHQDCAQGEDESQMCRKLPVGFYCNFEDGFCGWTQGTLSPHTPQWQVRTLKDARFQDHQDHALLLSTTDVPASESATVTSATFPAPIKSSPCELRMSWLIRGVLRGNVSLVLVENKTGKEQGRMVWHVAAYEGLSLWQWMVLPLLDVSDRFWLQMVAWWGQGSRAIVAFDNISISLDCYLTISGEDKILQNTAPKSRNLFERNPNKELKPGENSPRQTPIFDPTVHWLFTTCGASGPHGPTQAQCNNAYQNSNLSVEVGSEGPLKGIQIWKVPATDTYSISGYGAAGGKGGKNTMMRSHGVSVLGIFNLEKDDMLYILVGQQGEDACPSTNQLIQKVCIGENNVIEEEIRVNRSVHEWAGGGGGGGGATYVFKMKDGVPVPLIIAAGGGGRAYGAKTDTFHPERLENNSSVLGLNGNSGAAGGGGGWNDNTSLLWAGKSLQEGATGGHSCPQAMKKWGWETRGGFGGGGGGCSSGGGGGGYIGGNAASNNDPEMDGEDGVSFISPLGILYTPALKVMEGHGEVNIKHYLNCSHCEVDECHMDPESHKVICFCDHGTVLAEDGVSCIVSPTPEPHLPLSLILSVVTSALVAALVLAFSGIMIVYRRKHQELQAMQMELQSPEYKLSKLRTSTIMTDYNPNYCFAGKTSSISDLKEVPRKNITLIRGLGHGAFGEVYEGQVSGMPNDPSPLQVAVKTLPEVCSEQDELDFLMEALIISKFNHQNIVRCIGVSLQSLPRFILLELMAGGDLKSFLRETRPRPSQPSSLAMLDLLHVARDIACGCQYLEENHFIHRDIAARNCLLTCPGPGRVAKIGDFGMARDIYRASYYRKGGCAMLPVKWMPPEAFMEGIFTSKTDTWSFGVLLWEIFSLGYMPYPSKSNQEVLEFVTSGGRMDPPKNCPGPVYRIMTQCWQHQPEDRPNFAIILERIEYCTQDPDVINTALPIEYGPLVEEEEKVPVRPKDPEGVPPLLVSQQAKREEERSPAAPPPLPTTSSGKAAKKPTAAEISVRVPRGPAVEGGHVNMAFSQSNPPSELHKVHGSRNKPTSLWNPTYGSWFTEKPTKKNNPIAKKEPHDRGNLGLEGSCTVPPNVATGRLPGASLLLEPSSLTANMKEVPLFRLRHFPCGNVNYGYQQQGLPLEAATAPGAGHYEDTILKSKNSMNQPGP
Excerpt: as §3, §4

[3] = tested on: T cell lymphoma Karpas-299 cell line (harboring endogenous NPM-ALK fusion gene); assay: Cell proliferation assay, Karpas-299 cells (CellTiter-Glo); details: Homo sapiens, 72 hours incubation
Experimental: as §1, §2

SMILES: CC[C@@H]1CNC(=O)c2cnn3ccc(nc23)N[C@H](C)c2cc(F)ccc2O1 [Compound 1, (7R,13R)-7-ethyl-11-fluoro-13-methyl-6,7,13,14-tetrahydro-1,15-ethenopyrazolo[4,3-f][1,4,8,10]benzoxatriazacyclotridecin-4(5H)-one]
- IC50 [1]: 67.6 nM
- IC50 [2]: 0.2 nM
- GI50 (CD74-ROS1 Ba/F3): 0.2 nM
- GI50 (EML4-ALK Ba/F3): 13.4 nM
- IC50 [3]: 16.7 nM

SMILES: O=C1NCCOc2ccc(F)cc2[C@@H](CCF)Nc2ccn3ncc1c3n2 [Compound 23, (13R)-11-fluoro-13-(2-fluoroethyl)-6,7,13,14-tetrahydro-1,15-ethenopyrazolo[4,3-f][1,4,8,10]benzoxatriazacyclotridecin-4(5H)-one]
- IC50 [1]: 236 nM
- IC50 [2]: 1.3 nM
- GI50 (CD74-ROS1 Ba/F3): 5.1 nM
- GI50 (EML4-ALK Ba/F3): 459 nM

SMILES: COC[C@@H]1CNC(=O)c2cnn3ccc(nc23)N[C@H](C)c2cc(F)ccc2O1 [Compound 25, (7S,13R)-11-fluoro-7-(methoxymethyl)-13-methyl-6,7,13,14-tetrahydro-1,15-ethenopyrazolo[4,3-f][1,4,8,10]benzoxatriazacyclotridecin-4(5H)-one]
- IC50 [1]: 134 nM
- IC50 [2]: 6.1 nM
- GI50 (EML4-ALK Ba/F3): 88.5 nM
- IC50 [3]: 166 nM

SMILES: C[C@H]1Nc2ccn3ncc(c3n2)C(=O)N[C@@H]2CCC[C@H]2Oc2ccc(F)cc21 [Compound 43, (3aR,9R,17aR)-7-fluoro-9-methyl-1,2,3,3a,9,10,17,17a-octahydro-16H-11,13-ethenocyclopenta[b]pyrazolo[4,3-f][1,4,8,10]benzoxatriazacyclotridecin-16-one]
- IC50 [1]: 44 nM
- IC50 [2]: 1 nM
- GI50 (EML4-ALK Ba/F3): 80 nM

SMILES: C[C@H]1Nc2ccn3ncc(c3n2)C(=O)N[C@H]2CCCC[C@@H]2Oc2ccc(F)cc21 [Compound 44, (4aS,10R,18aS)-8-fluoro-10-methyl-2,3,4,4a,10,11,18,18a-octahydro-12,14-ethenodibenzo[b,l]pyrazolo[4,3-f][1,4,8,10]oxatriazacyclotridecin-17(1H)-one]
- IC50 [1]: 1800 nM
- IC50 [2]: 56 nM
- GI50 (EML4-ALK Ba/F3): 3000 nM

SMILES: C[C@H]1Nc2ccn3ncc(c3n2)C(=O)N[C@@H]2CCCC[C@H]2Oc2ccc(F)cc21 [Compound 45, (4aR,10R,18aR)-8-fluoro-10-methyl-2,3,4,4a,10,11,18,18a-octahydro-12,14-ethenodibenzo[b,l]pyrazolo[4,3-f][1,4,8,10]oxatriazacyclotridecin-17(1H)-one]
- IC50 [1]: 206 nM
- IC50 [2]: 0.4 nM
- GI50 (EML4-ALK Ba/F3): > 10000 nM

SMILES: C[C@H]1Nc2ccn3ncc(c3n2)C(=O)N[C@H]2CCC[C@@H]2Oc2ccc(F)cc21 [Compound 46, (3aS,9R,17aS)-7-fluoro-9-methyl-1,2,3,3a,9,10,17,17a-octahydro-16H-11,13-ethenocyclopenta[b]pyrazolo[4,3-f][1,4,8,10]benzoxatriazacyclotridecin-16-one]
- IC50 [1]: 400 nM
- IC50 [2]: 11 nM
- GI50 (EML4-ALK Ba/F3): 2000 nM

SMILES: C[C@H]1Nc2ccn3ncc(c3n2)C(=O)N[C@@H]2CCCC[C@@H]2Oc2ccc(F)cc21 [Compound 47, (4aS,10R,18aR)-8-fluoro-10-methyl-2,3,4,4a,10,11,18,18a-octahydro-12,14-ethenodibenzo[b,l]pyrazolo[4,3-f][1,4,8,10]oxatriazacyclotridecin-17(1H)-one]
- IC50 [1]: 127 nM
- IC50 [2]: 6 nM
- GI50 (EML4-ALK Ba/F3): 504 nM

SMILES: C[C@H]1Nc2ccn3ncc(c3n2)C(=O)N[C@H]2CNC[C@H]2Oc2ccc(F)cc21 [Compound 48, (3aR,9R,17aS)-7-fluoro-9-methyl-1,2,3,3a,9,10,17,17a-octahydro-16H-11,13-ethenopyrazolo[4,3-f]pyrrolo[3,4-b][1,4,8,10]benzoxatriazacyclotridecin-16-one]
- IC50 [1]: > 10000 nM
- IC50 [2]: > 10000 nM
- GI50 (EML4-ALK Ba/F3): 5000 nM

SMILES: C[C@H]1Nc2ccn3ncc(c3n2)C(=O)N2CCC[C@H](C2)Oc2ccc(F)cc21 [Compound 52, (9R,15R)-13-fluoro-15-methyl-6,7,8,9,15,16-hexahydro-4H-1,17-etheno-5,9-methanopyrazolo[4,3-h][1,6,10,12]benzoxatriazacyclopentadecin-4-one]
- IC50 [1]: 768 nM
- IC50 [2]: 8.7 nM
- GI50 (EML4-ALK Ba/F3): 1480 nM

SMILES: C[C@H]1Nc2ccn3ncc(c3n2)C(=O)N2CCC[C@@H](C2)Oc2ccc(F)cc21 [Compound 53, (9S,15R)-13-fluoro-15-methyl-6,7,8,9,15,16-hexahydro-4H-1,17-etheno-5,9-methanopyrazolo[4,3-h][1,6,10,12]benzoxatriazacyclopentadecin-4-one]
- IC50 [1]: 505 nM
- IC50 [2]: 37.3 nM
- GI50 (EML4-ALK Ba/F3): 3000 nM

SMILES: C[C@H]1Nc2ccn3ncc(c3n2)C(=O)N2CCC(CC2)Oc2ccc(F)cc21 [Compound 54]
- IC50 [1]: > 10000 nM
- IC50 [2]: 464 nM
- GI50 (EML4-ALK Ba/F3): > 10000 nM

SMILES: C[C@H]1Nc2ccn3ncc(c3n2)C(=O)NC[C@@H](CN(C)C)Oc2ccc(F)cc21 [Compound 55, (7S,13R)-7-[(dimethylamino)methyl]-11-fluoro-13-methyl-6,7,13,14-tetrahydro-1,15-ethenopyrazolo[4,3-f][1,4,8,10]benzoxatriazacyclotridecin-4(5H)-one]
- IC50 [1]: 300 nM
- IC50 [2]: 23.5 nM
- GI50 (EML4-ALK Ba/F3): 709 nM

SMILES: C[C@H]1Nc2ccn3ncc(c3n2)C(=O)NC[C@@H](CN2CCCC2)Oc2ccc(F)cc21 [Compound 57, (7S,13R)-11-fluoro-13-methyl-7-[(pyrrolidin-1-yl)methyl]-6,7,13,14-tetrahydro-1,15-ethenopyrazolo[4,3-f][1,4,8,10]benzoxatriazacyclotridecin-4(5H)-one]
- IC50 [1]: 132 nM
- IC50 [2]: 70 nM
- GI50 (EML4-ALK Ba/F3): 665 nM

SMILES: CC[C@@H]1CNC(=O)c2cnn3ccc(nc23)N[C@H](C)c2cc(F)cnc2O1 [Compound 58, (7R,13R)-7-ethyl-11-fluoro-13-methyl-6,7,13,14-tetrahydro-1,15-ethenopyrazolo[4,3-f]pyrido[3,2-l][1,4,8,10]oxatriazacyclotridecin-4(5H)-one]
- IC50 [1]: 174 nM
- IC50 [2]: 0.2 nM
- GI50 (EML4-ALK Ba/F3): 31 nM

SMILES: C[C@@H]1Nc2ccn3ncc(c3n2)C(=O)NC[C@H](C)Oc2ncc(F)cc21 [Compound 59, (7S,13S)-11-fluoro-7,13-dimethyl-6,7,13,14-tetrahydro-1,15-ethenopyrazolo[4,3-f]pyrido[3,2-l][1,4,8,10]oxatriazacyclotridecin-4(5H)-one]
- IC50 [1]: 402 nM
- IC50 [2]: 5.5 nM
- GI50 (EML4-ALK Ba/F3): 2000 nM

SMILES: C[C@H]1CNC(=O)c2cnn3ccc(nc23)N[C@H](C)c2cc(F)cnc2O1 [Compound 60, (7S,13R)-11-fluoro-7,13-dimethyl-6,7,13,14-tetrahydro-1,15-ethenopyrazolo[4,3-f]pyrido[3,2-l][1,4,8,10]oxatriazacyclotridecin-4(5H)-one]
- IC50 [1]: 30.3 nM
- IC50 [2]: 0.35 nM
- GI50 (EML4-ALK Ba/F3): 218 nM

SMILES: CNC(=O)C1Nc2ccn3ncc(c3n2)C(=O)NC[C@H](C)Oc2ccc(F)cc21 (stereo partly drawn) [Compound 61, (7S)-11-fluoro-N,7-dimethyl-4-oxo-4,5,6,7,13,14-hexahydro-1,15-ethenopyrazolo[4,3-f][1,4,8,10]benzoxatriazacyclotridecine-13-carboxamide]
- IC50 [1]: 1070 nM
- IC50 [2]: 73.7 nM
- GI50 (EML4-ALK Ba/F3): 8000 nM

SMILES: C[C@H]1CNC(=O)c2cnn3ccc(nc23)NC(C(=O)N(C)C)c2cc(F)ccc2O1 (stereo partly drawn) [Compound 62, (7S)-11-fluoro-N,N,7-trimethyl-4-oxo-4,5,6,7,13,14-hexahydro-1,15-ethenopyrazolo[4,3-f][1,4,8,10]benzoxatriazacyclotridecine-13-carboxamide]
- IC50 [1]: 3570 nM
- IC50 [2]: 112 nM
- GI50 (EML4-ALK Ba/F3): 3000 nM
